Tests used:
TLR7 = biological target: T1, TLR7 (Homo sapiens, UniProt Q9NYK1); assay: HEK293 cells transfected with human TLR7, NF-κB driven reporter; type: cell-based; details: read-out: EC50, activation of TLR7
T1 construct: expressed in transfected cells; host or cells: HEK293
T1 sequence (Q9NYK1 27-1049): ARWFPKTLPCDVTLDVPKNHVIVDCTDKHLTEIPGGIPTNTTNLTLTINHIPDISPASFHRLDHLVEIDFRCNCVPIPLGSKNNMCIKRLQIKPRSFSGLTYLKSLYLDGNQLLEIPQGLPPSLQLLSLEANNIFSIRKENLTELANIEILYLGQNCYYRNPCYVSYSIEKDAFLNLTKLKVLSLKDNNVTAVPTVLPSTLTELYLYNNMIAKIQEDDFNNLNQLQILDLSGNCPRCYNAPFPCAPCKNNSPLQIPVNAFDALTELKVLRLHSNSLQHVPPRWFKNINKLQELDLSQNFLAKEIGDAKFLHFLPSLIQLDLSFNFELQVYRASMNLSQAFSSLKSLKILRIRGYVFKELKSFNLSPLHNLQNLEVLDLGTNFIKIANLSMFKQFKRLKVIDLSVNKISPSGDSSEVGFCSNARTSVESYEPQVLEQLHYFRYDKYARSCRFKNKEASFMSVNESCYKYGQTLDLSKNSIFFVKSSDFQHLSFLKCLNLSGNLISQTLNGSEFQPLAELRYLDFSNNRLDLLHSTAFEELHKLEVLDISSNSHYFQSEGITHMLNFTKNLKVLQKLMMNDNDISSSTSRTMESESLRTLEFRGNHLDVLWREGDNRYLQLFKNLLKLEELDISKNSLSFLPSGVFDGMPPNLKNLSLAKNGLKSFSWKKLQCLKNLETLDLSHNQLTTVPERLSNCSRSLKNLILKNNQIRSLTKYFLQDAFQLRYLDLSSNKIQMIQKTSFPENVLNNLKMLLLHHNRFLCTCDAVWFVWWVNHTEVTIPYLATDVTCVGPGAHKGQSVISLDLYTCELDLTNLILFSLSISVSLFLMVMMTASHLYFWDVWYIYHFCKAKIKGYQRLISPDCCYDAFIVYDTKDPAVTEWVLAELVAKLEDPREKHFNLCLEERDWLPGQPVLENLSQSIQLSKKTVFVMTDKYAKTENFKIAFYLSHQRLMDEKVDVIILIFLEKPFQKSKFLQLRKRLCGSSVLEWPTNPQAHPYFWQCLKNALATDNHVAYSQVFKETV
Method: (§1) FIG. 8 is two graphs depicting the potency and selectivity of VTX-378 for TLR8. The half-maximal effective concentration (EC50) for VTX-378 activation of TLR8 and TLR7 was assessed in peripheral blood mononuclear cells (PBMCs) by the amount of secreted TNFα (A) and by the activity of NF-κB (B) from 15 healthy donors and also in HEK293 cells transfected with various human TLRs.
(§2) Preclinical studies were performed with VTX-378, the active pharmaceutical ingredient in VTX-1463. The specificity of VTX-378 for human TLR8 relative to other TLRs was assessed in transfected Human Embryonic Kidney 293 (HEK293) cells engineered to express individual TLRs (2-9) via transfection, and assessed using an NF-κB driven reporter system. […] The pharmacologic effects of VTX-378 were characterized in vitro using isolated human peripheral blood mononuclear cells (PBMCs).

human TLR8 = biological target: T2, human TLR8 (Homo sapiens, UniProt Q9NR97); assay: HEK293 cells transfected with human TLR8, NF-κB driven reporter; type: cell-based; details: read-out: half maximal effective concentration (EC50), activation of TLR8
T2 construct: expressed in transfected cells; host or cells: HEK293
T2 sequence (Q9NR97 27-1041): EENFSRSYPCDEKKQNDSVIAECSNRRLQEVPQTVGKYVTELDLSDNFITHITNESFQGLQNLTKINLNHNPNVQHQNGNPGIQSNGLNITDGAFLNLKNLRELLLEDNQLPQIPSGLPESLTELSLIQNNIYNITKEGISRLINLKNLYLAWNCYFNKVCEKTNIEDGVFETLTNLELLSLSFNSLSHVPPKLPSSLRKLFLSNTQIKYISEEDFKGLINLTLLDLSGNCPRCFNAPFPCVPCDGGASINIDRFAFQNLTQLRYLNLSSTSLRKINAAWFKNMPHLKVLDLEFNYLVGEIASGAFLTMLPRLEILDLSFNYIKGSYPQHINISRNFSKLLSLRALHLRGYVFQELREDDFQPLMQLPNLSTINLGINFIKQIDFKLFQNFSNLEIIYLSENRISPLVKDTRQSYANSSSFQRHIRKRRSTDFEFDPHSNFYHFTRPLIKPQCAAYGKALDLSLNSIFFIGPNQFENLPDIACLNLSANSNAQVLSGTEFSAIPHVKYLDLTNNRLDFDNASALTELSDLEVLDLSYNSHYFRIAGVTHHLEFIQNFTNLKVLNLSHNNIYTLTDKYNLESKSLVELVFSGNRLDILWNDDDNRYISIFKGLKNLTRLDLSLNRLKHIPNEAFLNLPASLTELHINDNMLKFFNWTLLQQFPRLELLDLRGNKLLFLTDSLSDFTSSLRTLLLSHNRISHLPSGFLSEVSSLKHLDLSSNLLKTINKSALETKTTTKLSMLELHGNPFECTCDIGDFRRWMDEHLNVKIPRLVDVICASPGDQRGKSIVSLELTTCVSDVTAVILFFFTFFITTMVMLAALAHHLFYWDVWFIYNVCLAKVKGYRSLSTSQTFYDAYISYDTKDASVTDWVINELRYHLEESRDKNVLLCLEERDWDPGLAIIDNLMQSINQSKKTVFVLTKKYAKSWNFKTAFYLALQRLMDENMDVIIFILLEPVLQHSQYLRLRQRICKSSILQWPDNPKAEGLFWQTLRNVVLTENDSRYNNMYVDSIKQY
Method: as §1, §2

[1] = tested on: ragweed-sensitized beagle dogs; assay: Model of allergic rhinitis in ragweed-sensitized beagle dogs (acoustic rhinometry, nasal mediators); type: in vivo, beagle dog
Method: FIG. 1 is four graphs establishing that one day pretreatment with VTX-378 reduces nasal congestion.
The therapeutic activity of VTX-378 was assessed in a well characterized model of allergic rhinitis in ragweed-sensitized beagle dogs (FIGS. 1-7). Acoustic rhinometry (AcR) can be used to measure the direct effect on the nasal mucosa following nasal instillation of ragweed antigen.

[2] = single dose 1000 ug intranasal one day prior to ragweed challenge

With `CCCN(CCC)C(=O)C1=Cc2ccc(-c3ccc(C(=O)N4CCCC4)cc3)cc2N=C(N)C1` [VTX-378] the EC50 (TLR7) was roughly 2 µM, the EC50 (human TLR8) was roughly 0.1 µM and the “production of allergic mediators (nasal histamine, leukotrienes C4/D4/E4, prostaglandin D2, prostaglandin E2)” value ([1]; dose not given) was “significantly reduced”. For the same molecule, the “allergic response to antigen challenge (acoustic rhinometry)” value ([1]; intranasal 100-1000 mcg) was “dose-dependent, statistically significant reduction”, the “level of nasal histamine” value ([1]; single dose 100 ug) was “less significant” and the “level of nasal leukotrienes C4/D4/E4” value ([1]; single dose 100 ug) was “less significant”. For the same molecule, the “level of nasal prostaglandin D2” value ([1]; single dose 100 ug) was “less significant”, the “level of nasal prostaglandin E2” value ([1]; single dose 100 ug) was “less significant” and the “allergic responses (nasal congestion)” value ([1]; single dose 100 ug, 500 ug and 1000 ug intranasal one day prior to ragweed challenge) was “significantly attenuated allergic responses”. For the same molecule, the “level of nasal histamine” value [1, 2] was “significantly reduced”, the “level of nasal leukotrienes C4/D4/E4” value [1, 2] was “significantly reduced” and the “level of nasal prostaglandin D2” value [1, 2] was “significantly reduced”. The “level of nasal prostaglandin E2” value [1, 2] was “significantly reduced”, the “attenuation of nasal congestion” value ([1]; single dose of 1000 mcg intranasal before ragweed challenge) was 56.5%±10.0 and the “allergic responses (nasal congestion)” value ([1]; two 250 ug doses intranasal one day and four-day prior to ragweed challenge) was “significantly attenuated allergic responses”. For the same molecule, the “allergic responses (nasal congestion)” value ([1]; two 1000 ug doses intranasal, one day and four-day or one day and eight-day prior to ragweed challenge) was “significantly attenuated allergic responses”, the “improvement of nasal congestion” value ([1]; two doses of 1000 mcg separated by 4 days) was 65.4%±10.3 and the “improvement of nasal congestion” value ([1]; two doses of 1000 mcg separated by 7 days) was 71.9%±7.7.
